Measurements: patent US10513521B2, “Compositions and methods for inhibiting BMP” (The Brigham and Women's Hospital, Inc., priority 2014, dated 2019)
Structures can show the parent of a compound that is named as a salt.

Experiments:
[1] = molecular target: ALK1 (Homo sapiens, UniProt P37023); assay: TR-FRET enzymatic ALK kinase assay, ALK1
Protocol: (§1) Briefly, the ALKs enzymatic assay was initiated by dispense 2.5 μl enzyme in 1× kinase reaction buffer. The assay plate was then added with compounds followed by incubation at room temperature for 10 minutes. Then 2.5 μl/well substrate was added.

[2] = molecular target: T1, ALK2 (Homo sapiens, UniProt Q04771); assay: TR-FRET enzymatic ALK kinase assay, ALK2
T1 sequence (Q04771 21-509): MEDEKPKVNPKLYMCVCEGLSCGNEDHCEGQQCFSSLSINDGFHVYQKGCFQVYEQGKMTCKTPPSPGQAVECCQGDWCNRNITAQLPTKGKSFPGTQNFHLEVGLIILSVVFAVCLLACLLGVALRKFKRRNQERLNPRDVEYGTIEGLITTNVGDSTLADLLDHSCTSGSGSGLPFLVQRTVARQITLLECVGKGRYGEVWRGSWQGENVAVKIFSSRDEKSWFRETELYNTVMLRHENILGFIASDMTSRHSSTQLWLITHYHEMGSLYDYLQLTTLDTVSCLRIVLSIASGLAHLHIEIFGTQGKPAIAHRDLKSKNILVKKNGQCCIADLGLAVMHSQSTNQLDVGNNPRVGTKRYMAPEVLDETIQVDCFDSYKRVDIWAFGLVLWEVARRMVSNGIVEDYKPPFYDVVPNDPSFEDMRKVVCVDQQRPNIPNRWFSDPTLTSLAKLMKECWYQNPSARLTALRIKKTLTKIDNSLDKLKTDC
Protocol: as §1

[3] = molecular target: ALK3 (Homo sapiens, UniProt P36894); assay: TR-FRET enzymatic ALK kinase assay, ALK3
Protocol: as §1

[4] = molecular target: T2, ALK4 (Homo sapiens, UniProt P36896); assay: TR-FRET enzymatic ALK kinase assay, ALK4
T2 sequence (P36896 24-505): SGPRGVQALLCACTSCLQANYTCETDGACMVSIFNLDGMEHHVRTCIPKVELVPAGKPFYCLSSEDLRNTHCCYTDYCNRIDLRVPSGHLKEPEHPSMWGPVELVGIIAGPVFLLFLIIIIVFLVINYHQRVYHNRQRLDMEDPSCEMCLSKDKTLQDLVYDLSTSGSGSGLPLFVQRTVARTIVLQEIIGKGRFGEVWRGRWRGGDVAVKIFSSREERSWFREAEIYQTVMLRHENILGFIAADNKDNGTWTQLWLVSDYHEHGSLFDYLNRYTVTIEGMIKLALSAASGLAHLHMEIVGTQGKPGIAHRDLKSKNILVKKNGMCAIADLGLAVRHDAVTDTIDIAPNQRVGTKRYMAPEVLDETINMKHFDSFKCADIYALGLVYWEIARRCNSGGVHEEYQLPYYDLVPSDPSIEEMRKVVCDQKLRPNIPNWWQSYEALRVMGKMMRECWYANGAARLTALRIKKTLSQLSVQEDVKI
Protocol: as §1

[5] = molecular target: T3, ALK5 (Homo sapiens, UniProt P36897); assay: TR-FRET enzymatic ALK kinase assay, ALK5
T3 sequence (P36897 34-503): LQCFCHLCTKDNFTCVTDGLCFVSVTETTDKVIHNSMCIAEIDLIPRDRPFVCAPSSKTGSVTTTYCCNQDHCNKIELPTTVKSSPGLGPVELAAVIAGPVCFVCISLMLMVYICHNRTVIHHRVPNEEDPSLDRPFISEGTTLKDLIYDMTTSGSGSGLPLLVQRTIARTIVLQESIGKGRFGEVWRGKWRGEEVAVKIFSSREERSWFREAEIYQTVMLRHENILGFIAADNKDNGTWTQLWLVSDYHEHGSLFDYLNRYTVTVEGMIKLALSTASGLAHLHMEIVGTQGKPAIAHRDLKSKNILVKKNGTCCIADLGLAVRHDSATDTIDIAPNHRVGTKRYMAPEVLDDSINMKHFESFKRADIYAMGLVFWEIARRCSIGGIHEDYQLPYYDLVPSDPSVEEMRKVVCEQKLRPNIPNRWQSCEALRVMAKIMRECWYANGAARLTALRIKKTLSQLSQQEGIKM
Protocol: Six ALK kinase enzyme assays were developed for determination of compound activities on ALK1, ALK2, ALK3, ALK4, ALK5 and ALK6.
as §1

[6] = molecular target: ALK6 (Homo sapiens, UniProt O00238); assay: TR-FRET enzymatic ALK kinase assay, ALK6
Sequence of ALK6 (O00238 14-502): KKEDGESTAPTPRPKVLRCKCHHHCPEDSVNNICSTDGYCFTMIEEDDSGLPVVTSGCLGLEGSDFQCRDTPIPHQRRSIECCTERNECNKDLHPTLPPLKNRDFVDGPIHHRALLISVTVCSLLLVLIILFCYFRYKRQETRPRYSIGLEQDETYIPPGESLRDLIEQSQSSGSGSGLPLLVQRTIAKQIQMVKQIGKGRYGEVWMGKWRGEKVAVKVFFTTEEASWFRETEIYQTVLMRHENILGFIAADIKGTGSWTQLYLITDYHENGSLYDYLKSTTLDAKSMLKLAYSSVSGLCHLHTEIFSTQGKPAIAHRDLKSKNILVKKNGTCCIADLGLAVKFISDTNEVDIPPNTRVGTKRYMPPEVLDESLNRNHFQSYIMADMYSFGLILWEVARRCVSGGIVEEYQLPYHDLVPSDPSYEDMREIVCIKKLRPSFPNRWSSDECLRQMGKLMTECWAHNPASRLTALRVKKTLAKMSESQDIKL
Protocol: as §1

Sequence of ALK3 (P36894 24-532): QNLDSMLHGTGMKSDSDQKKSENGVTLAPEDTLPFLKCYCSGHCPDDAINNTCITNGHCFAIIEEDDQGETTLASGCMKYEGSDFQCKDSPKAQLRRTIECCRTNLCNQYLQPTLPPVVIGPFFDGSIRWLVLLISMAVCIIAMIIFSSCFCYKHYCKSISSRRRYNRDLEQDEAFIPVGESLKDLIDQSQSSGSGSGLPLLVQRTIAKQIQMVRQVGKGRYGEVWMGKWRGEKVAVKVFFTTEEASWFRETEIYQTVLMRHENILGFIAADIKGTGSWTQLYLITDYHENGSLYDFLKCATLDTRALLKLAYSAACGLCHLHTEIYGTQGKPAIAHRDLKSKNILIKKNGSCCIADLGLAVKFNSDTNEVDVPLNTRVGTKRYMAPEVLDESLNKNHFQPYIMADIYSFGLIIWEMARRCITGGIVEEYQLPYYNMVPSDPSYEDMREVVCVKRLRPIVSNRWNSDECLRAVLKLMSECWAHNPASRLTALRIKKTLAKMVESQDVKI
Sequence of ALK1 (P37023 22-503): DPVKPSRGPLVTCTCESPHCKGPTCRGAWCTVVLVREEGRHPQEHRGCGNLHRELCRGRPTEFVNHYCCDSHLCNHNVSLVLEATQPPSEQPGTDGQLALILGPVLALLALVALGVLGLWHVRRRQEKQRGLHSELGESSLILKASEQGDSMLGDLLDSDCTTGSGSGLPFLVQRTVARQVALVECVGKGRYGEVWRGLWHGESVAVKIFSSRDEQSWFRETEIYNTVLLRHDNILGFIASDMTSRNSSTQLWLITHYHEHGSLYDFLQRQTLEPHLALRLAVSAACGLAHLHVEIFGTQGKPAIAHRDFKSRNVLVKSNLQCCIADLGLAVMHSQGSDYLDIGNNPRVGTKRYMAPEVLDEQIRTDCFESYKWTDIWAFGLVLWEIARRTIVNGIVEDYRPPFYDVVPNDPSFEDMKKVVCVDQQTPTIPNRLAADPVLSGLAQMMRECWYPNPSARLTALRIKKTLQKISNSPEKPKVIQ

SMILES | IC50 [1] [nM] | IC50 [2] [nM] | IC50 [3] [nM] | IC50 [4] [nM] | IC50 [5] [nM] | IC50 [6] [nM] | activity in the higher ATP concentrations (concentration-response curves) ([1]; ALK1, in the presence of 10, 100, or 1,000 µM ATP, FIG. 3) | activity in the higher ATP concentrations (concentration-response curves) ([2]; ALK2, in the presence of 10, 100, or 1,000 µM ATP, FIG. 3)
CC(=O)c1ccc(-c2cnn3cc(-c4ccc(N5[C@H](C)CNC[C@@H]5C)cc4)cnc23)c2ccccc12 [Compound 27, 1-(4-(6-(4-((2R,6S)-2,6-dimethylpiperazin-1-yl)phenyl)pyrazolo[1,5-a]pyrimidin-3-yl)naphthalen-1-yl)ethanone] | 109 | 19 | 224 | 4030 | 13500 | 622 |  | 
C[C@@H]1CNC[C@H](C)N1c1ccc(-c2cnc3c(-c4cccc5c(-c6nn[nH]n6)cccc45)cnn3c2)cc1 [Compound 28, 3-(5-(1H-tetrazol-5-yl)naphthalen-1-yl)-6-(4-((2R,6S)-2,6-dimethylpiperazin-1-yl)phenyl)pyrazolo[1,5-a]pyrimidine] | 133 | 23 | 168 |  |  | 113 |  | 
CC(O)c1ccc(-c2cnn3cc(-c4ccc(N5[C@H](C)CNC[C@@H]5C)cc4)cnc23)c2ccccc12 (stereo partly drawn) [Compound 29, 1-(4-(6-(4-((2R,6S)-2,6-dimethylpiperazin-1-yl)phenyl)pyrazolo[1,5-a]pyrimidin-3-yl)naphthalen-1-yl)ethanol] | 20 | 14 | 84 | 3540 | 5370 | 294 |  | 
C[C@@H]1CNC[C@H](C)N1c1ccc(-c2cnc3c(-c4ccc(C(=O)C(F)(F)F)c5ccccc45)cnn3c2)cc1 [Compound 30, 1-(4-(6-(4-((2R,6S)-2,6-dimethylpiperazin-1-yl)phenyl)pyrazolo[1,5-a]pyrimidin-3-yl)naphthalen-1-yl)-2,2,2-trifluoroethanone] | 305 | 206 | 1610 | 7980 | 22900 | 2380 |  | 
C[C@@H]1CNC[C@H](C)N1c1ccc(-c2cnc3c(-c4cccc5ccccc45)cnn3c2)cc1 [Compound 31, 6-(4-((2R,6S)-2,6-dimethylpiperazin-1-yl)phenyl)-3-(naphthalen-1-yl)pyrazolo[1,5-a]pyrimidine] | 51 | 17 | 271 | 6600 | 59600 | 1080 |  | 
CC(O)c1cccc2c(-c3cnn4cc(-c5ccc(N6[C@H](C)CNC[C@@H]6C)cc5)cnc34)cccc12 (stereo partly drawn) [Compound 33, 1-(5-(6-(4-((2R,6S)-2,6-dimethylpiperazin-1-yl)phenyl)pyrazolo[1,5-a]pyrimidin-3-yl)naphthalen-1-yl)ethanol] | 1520 | 367 | 7830 | 16300 | 40400 | 16200 |  | 
COc1ccc2ccccc2c1-c1cnn2cc(-c3ccc(N4[C@H](C)CNC[C@@H]4C)cc3)cnc12 [Compound 34, 6-(4-((2R,6S)-2,6-dimethylpiperazin-1-yl)phenyl)-3-(2-methoxynaphthalen-1-yl)pyrazolo[1,5-a]pyrimidine] | 1310 | 249 | 4860 | 12700 | 18500 | 17400 |  | 
Cc1cc(S(N)(=O)=O)ccc1-c1cnn2cc(-c3ccc(N4[C@H](C)CNC[C@@H]4C)cc3)cnc12 [Compound 36, 4-(6-(4-((2R,6S)-2,6-dimethylpiperazin-1-yl)phenyl)pyrazolo[1,5-a]pyrimidin-3-yl)-3-methylbenzenesulfonamide] | 9480 | 3040 |  |  |  |  |  | 
Cc1cc(-c2cnn3cc(-c4ccc(N5[C@H](C)CNC[C@@H]5C)cc4)cnc23)ccc1S(N)(=O)=O [Compound 37, 4-(6-(4-((2R,6S)-2,6-dimethylpiperazin-1-yl)phenyl)pyrazolo[1,5-a]pyrimidin-3-yl)-2-methylbenzenesulfonamide] | 811 |  |  |  |  |  |  | 
C[C@@H]1CNC[C@H](C)N1c1ccc(-c2cnc3c(-c4ccc(S(N)(=O)=O)cc4)cnn3c2)cc1 [Compound 38, 4-(6-(4-((2R,6S)-2,6-dimethylpiperazin-1-yl)phenyl)pyrazolo[1,5-a]pyrimidin-3-yl)benzenesulfonamide] | 1790 |  |  |  |  |  |  | 
C[C@@H]1CNC[C@H](C)N1c1ccc(-c2cnc3c(-c4cccc5c(S(=O)(=O)N(C)C)cccc45)cnn3c2)cc1 [Compound 40, 5-(6-(4-((2R,6S)-2,6-dimethylpiperazin-1-yl)phenyl)pyrazolo[1,5-a]pyrimidin-3-yl)-N,N-dimethylnaphthalene-1-sulfonamide] | > 10000 | 3200 | > 10000 | > 10000 | > 10000 | > 10000 |  | 
CC1CCN(c2ccc(-c3cnc4c(-c5ccc(S(N)(=O)=O)c6ccccc56)cnn4c3)cn2)CC1 [Compound 47, 4-(6-(6-(4-methylpiperidin-1-yl)pyridin-3-yl)pyrazolo[1,5-a]pyrimidin-3-yl)naphthalene-1-sulfonamide] | 5700 | 2900 | > 10000 | > 10000 | > 10000 | > 10000 |  | 
C[C@@H]1CNC[C@H](C)N1c1ccc(-c2cnc3c(-c4ccc(F)c(-c5nnn[nH]5)c4)cnn3c2)cc1 [Compound 72, 6-(4-((2R,6S)-2,6-dimethylpiperazin-1-yl)phenyl)-3-(4-fluoro-3-(1H-tetrazol-5-yl)phenyl)pyrazolo[1,5-a]pyrimidine] | 120 | 16 | 220 | > 10000 | > 10000 | 330 |  | 
CS(=O)(=O)c1cccc(-c2cnn3cc(-c4ccc(CC5CCNCC5)cc4)cnc23)c1 [Compound 126, 3-(3-(methylsulfonyl)phenyl)-6-(4-(piperidin-4-ylmethyl)phenyl)pyrazolo[1,5-a]pyrimidine. TFA] | 900 | 280 | > 10000 | > 10000 | > 10000 | > 10000 |  | 
CC(O)c1cccc(-c2cnn3cc(-c4ccc(C(F)(F)CN5CCCCC5)cc4)cnc23)c1 (centres unmarked) [Compound 127, 1-(3-(6-(4-(1,1-difluoro-2-(piperidin-1-yl)ethyl)phenyl)pyrazolo[1,5-a]pyrimidin-3-yl)phenyl)ethanol] | 4800 | 1700 | > 10000 | > 10000 | > 10000 | > 10000 |  | 
CS(=O)(=O)c1cccc(-c2cnn3cc(-c4ccc(CCN5CCCC5)cc4)cnc23)c1 [Compound 128, 3-(3-(methylsulfonyl)phenyl)-6-(4-(2-(pyrrolidin-1-yl)ethyl)phenyl)pyrazolo[1,5-a]pyrimidine] | 390 | 80 | 6300 | > 10000 | > 10000 | > 10000 |  | 
CC(N)c1ccc(-c2cnc3c(-c4ccc(S(N)(=O)=O)c5ccccc45)cnn3c2)cc1 (centres unmarked) [Compound 189, 4-(6-(4-(1-aminoethyl)phenyl)pyrazolo[1,5-a]pyrimidin-3-yl)naphthalene-1-sulfonamide] | 350 |  |  | > 10000 | > 10000 | > 10000 |  | 
c1ccc2c(-c3cnn4cc(-c5ccc(N6CCNCC6)cc5)cnc34)ccnc2c1 [Compound A, reference compound] |  |  |  |  |  |  | reduced | reduced
